Laboratory results as given in patent US7314620B2, “Methods for diagnosis and treatment of PH domain signal transduction disorders” (New York University, priority 1995, dated 2008).
Values joined by “and” are separate entries in the source; they are usually repeats but may differ in a detail not shown here. Equal entries are not always repeated. “Also recorded” adds a separate entry of the source. Where two headings read alike, the source gives them in different places. One block for each compound: values may come before it.

Columns and labels:
[1] = molecular target: T1, PLCδ-PH (Rattus norvegicus, UniProt P10688); assay: Spin-column competition assay for 3H-I(145)P3 binding to PLCδ-PH; conditions: for competition for I(145)P3 binding by lipid vesicles: lipid at 5% in DMPC vesicles or pure DMPC, assuming 50% of lipid on the surface
T1 construct: initiator methionine (N); made in house; host or cells: Escherichia coli (pET11a, T7 system)
T1 sequence (P10688 20-136): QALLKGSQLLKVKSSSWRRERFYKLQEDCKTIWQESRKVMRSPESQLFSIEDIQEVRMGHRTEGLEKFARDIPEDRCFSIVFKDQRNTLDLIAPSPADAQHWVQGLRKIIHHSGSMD
Description: A spin-column based competition assay was employed to determine relative affinities of other inositol polyphosphates for PLCδ-PH. […] The sample (40 μl) was then applied to a Biogel P6 gel filtration spin-column. […] Each curve represents the mean of two or more experiments.
The sample was then applied to a pre-spun 1 ml spin-column containing Biogel P6 desalting medium. The spin-column was then centrifuged for 4 minutes at 900 g. Essentially all of the protein was determined to pass through the column under these conditions, and no significant counts were seen to pass through the column in the absence of protein. After spinning, all of the material that passed through the column was added to scintillation fluid for counting. Counts were normalized to those obtained in the absence of competitor, and plotted as fraction of maximal binding. […]
Values for which a precise number is given represent the mean of at least two experiments.

[2] = molecular target: T2, Dyn-PH (PH domain of dynamin) (Homo sapiens, UniProt Q05193); assay: Gel filtration of 3H-labeled IP3 with PH domain; type: binding; conditions: PH domain 10 μM, IP3 20 μM
T2 construct: The PH domains from PLC-δ1, and dynamin, as well as the N-terminal PH domain of pleckstrin; made in house; host or cells: Escherichia coli (T7 system)
T2 sequence (Q05193 519-625 limits assumed): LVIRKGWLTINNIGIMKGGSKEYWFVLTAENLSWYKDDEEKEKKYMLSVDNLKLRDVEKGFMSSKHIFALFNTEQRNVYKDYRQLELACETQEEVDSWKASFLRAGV
Description: (§1) For gel-filtration studies, PH domain at 10 μM was mixed with 20 μM IP3, containing 100 nCi of the appropriate ^3H-labeled isomer. A 200 μl sample was applied to a BioRad BiogelP6 desalting column, and 40 fractions of 300 μl were collected. A Bio-Rad protein assay was performed on […] of each fraction to determine the elution position of the protein, and scintillation counting of the remainder was used to detect the elution positions of IP3. Experiments were performed in either 50 mM MOPS, 100 mM NaCl, pH 6.8, or 100 mM NH4OAc, pH 6.8.

[3] = molecular target: T1, PLCδ-PH; assay: Gel filtration of 3H-labeled IP3 with PH domain; type: binding; conditions: PH domain 10 μM, IP3 20 μM
Description: as §1

[4] = molecular target: T3, PlecN-PH (N-terminal PH domain of pleckstrin) (Homo sapiens, UniProt P08567); assay: Gel filtration of 3H-labeled IP3 with PH domain; type: binding; conditions: PH domain 10 μM, IP3 20 μM
T3 construct: residues 1-110 of pleckstrin (PlecN-PH); initiator methionine (N); made in house; host or cells: Escherichia coli (pET11a, T7 system)
T3 sequence (P08567 1-110): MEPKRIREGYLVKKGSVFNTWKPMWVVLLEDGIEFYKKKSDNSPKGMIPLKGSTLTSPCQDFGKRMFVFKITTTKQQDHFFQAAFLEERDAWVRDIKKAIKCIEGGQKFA
Description: as §1

[5] = molecular target: T4, PLCδ-PH (PH domain of rat PLC-δ1) (Rattus norvegicus, UniProt P10688); assay: Isothermal titration calorimetry of inositol polyphosphate / PIP2 vesicle binding to PLCδ-PH
T4 construct: initiator methionine (N); made in house; host or cells: Escherichia coli (pET11a, T7 system)
T4 sequence (P10688 20-136): T1 sequence (P10688 20-136)
Description: The resulting titration curve was fit using Omega software (Wiseman et al., 1989).
All experiments utilized the OMEGA instrument from MicroCal (Wiseman, T. et al., Anal. Biochem. 179, 131-137, 1989), in the laboratory of Prof. Julian Sturtevant at Yale. Titrations were performed at 25° C. in 50 mM MOPS, 100 mM NaCl, pH 6.8 or 100 mM NH4OAc at pH 6.8. […] For each titration, PH domain solution was dialyzed exhaustively against the buffer used for dilution of highly concentrated stocks of ligand. Heats for dilution of the ligand solutions were determined in separate titrations of ligand into buffer solution present in the cell.
Higher concentrations were employed for weaker binding events. […] Stoichiometry, binding constant (Kβ) and ΔH were all allowed to float in the fitting procedure.
A titration curve such as that to an equation describing a simple-binding reaction (Wiseman, T. et al., Anal. Biochem. 179, 131-137, 1989). From this fit, values for the binding constant, stoichiometry and ΔH for the binding reaction are ascertained. […] Ferris, C. D. et al, Nature, 342, 87-89, 1989.

[6] = tested on: any PH domain (PLCδ-PH, Dyn-PH, PlecN-PH); assay: Centrifugation-based assay of PH domain binding to lipid vesicles; conditions: lipid at 5% in DMPC vesicles
Description: Attempts to detect PH domain association with lipid vesicles were performed exactly as described by Harlan, J. E. et al., Nature 371, 168-170, 1994. In addition to using the BCA protein assay reagent, for which lipid blanks were rather high compared with the values expected for the protein concentrations employed, we also measured OD278 of the supernatants after addition of SDS in order to detect removal of protein upon pelleting vesicles. […] Initially, we performed a centrifugation-based assay, using the conditions described by Harlan, J. E. et al., Nature 371, 168-170, 1994. […] Similarly, we were unable to detect association of any of the PH domains with the same vesicles by using size-exclusion chromatography to separate protein and lipid. Any complexes between the PH domains and these vesicles therefore form with low affinity and/or have fast dissociation kinetics, such that they dissociate in the separation methods employed.

[7] = ratio of molar excess for 50% competition to that of unlabeled I(145)P3, multiplied by 0.2 μM, read-out: KD (μM) by competition assay
[8] = from concentrations required to reduce 3H-I(145)P3 binding by 50%, read-out: KD from competition assay

Kd [1, 7]: > 12 µM | binding detected by gel filtration [3]: no binding
Compound: O=P(O)(O)OC1C(O)C(O)C(OP(=O)(O)O)C(OP(=O)(O)O)C1O (single isomer, unassigned) [D-I(134)P3]
binding detected by gel filtration [2]: neither Dyn-PH nor PlecN-PH was seen to bind; also recorded: Neither PlecN-PH nor Dyn-PH showed evidence of binding | binding detected by gel filtration [4]: neither Dyn-PH nor PlecN-PH was seen to bind; also recorded: Neither PlecN-PH nor Dyn-PH showed evidence of binding

Kd [1, 8]: 7.5 µM | Kd [1, 7]: 4.7 µM
Compound: O=P(O)(O)OC1C(O)C(O)C(OP(=O)(O)O)C(OP(=O)(O)O)C1O (single isomer, unassigned) [D-I(245)P3]

Kd [1, 8]: > 50 µM | Kd [1, 7]: > 12 µM
Compound: O=P(O)(O)O[C@H]1[C@H](O)[C@@H](O)[C@H](OP(=O)(O)O)[C@@H](O)[C@H]1O [D-I(14)P2]

Kd [1, 7]: > 12 µM
Compound: O=P(O)(O)O[C@@H]1C(O)[C@@H](OP(=O)(O)O)[C@@H](O)C(O)[C@H]1O (stereo partly drawn) [D-I(24)P2]

Kd [1, 8]: > 50 µM | Kd [1, 7]: > 12 µM
Compound: O=P(O)(O)O[C@@H]1[C@@H](O)[C@H](O)[C@H](O)[C@H](O)[C@H]1OP(=O)(O)O [D-I(45)P2]

Kd [1, 7]: 12 µM
Compound: O=P(O)(O)O[C@H]1[C@H](OP(=O)(O)O)[C@@H](OP(=O)(O)O)[C@H](O)[C@@H](O)[C@H]1OP(=O)(O)O [D-I(1256)P4]

Kd [1, 7]: > 2 µM
Compound: O=P(O)(O)O[C@H]1[C@H](O)[C@@H](OP(=O)(O)O)[C@H](OP(=O)(O)O)[C@@H](OP(=O)(O)O)[C@H]1O [D-I(1345)P4]

Kd [1, 7]: 5.3 µM
Compound: O=P(O)(O)O[C@@H]1[C@@H](O)[C@H](OP(=O)(O)O)[C@@H](OP(=O)(O)O)[C@@H](O)[C@H]1OP(=O)(O)O [D-I(1346)P4]

Kd [1, 7]: 3.2 µM
Compound: O=P(O)(O)O[C@H]1[C@H](OP(=O)(O)O)[C@@H](OP(=O)(O)O)[C@@H](O)[C@@H](O)[C@@H]1OP(=O)(O)O [D-I(3456)P4]

competition for I(145)P3 binding by lipid vesicles [1]: did not compete | competition for I(145)P3 binding by lipid vesicles ([1]; listed as PC): no detectable competition
Compound: CCCCCCCCCCCCCC(=O)OC[C@H](COP(=O)([O-])OCC[N+](C)(C)C)OC(=O)CCCCCCCCCCCCC [DMPC, dimyristoylphosphatidylcholine]

Kd [1, 7]: > 60 µM
Compound: O=P(O)(OCC(O)CO)OC1C(O)C(O)C(O)C(O)C1O (centres unmarked) [GPI, 1-(a-glycerophosphoryl)-inositol]

Kd ([5]; ITC, read-out: KD (dissociation constant)): 0.4 µM | binding affinity in words ([5]; PIP2 in vesicles): submicromolar affinities | ΔG ([5]; individual titrations, 25° C): -8.86 kcal/M and -8.72 kcal/M | Stoichiometry n ([5]; individual titrations, 25° C, pH 6.8, quoted for IPn as the ligand, PIP2 in vesicles assuming 50% available): 1.08 ± 0.01 and 1.14 ± 0.01 | Kd ([5]; individual titrations, 25° C, pH 6.8, read-out: KD): 0.32 µM and 0.4 µM | Stoichiometry n ([5]; mean of the titrations): 1.11 ± 0.04 | ΔG ([5]; mean of the titrations): -8.79 ± 0.10 kcal/M | ΔH ([5]; mean of the titrations): -13.4 ± 0.2 kcal/M | ΔS ([5]; mean of the titrations): −15.4 ± 0.3 cal · M^−1 · K^−1 | Kd ([5]; mean of the titrations, read-out: KD): 0.36 ± 0.06 µM | Kd ([1]; PIP2: 5% in DMPC vesicles, assuming 50% available, read-out: KD from competition assay): 0.4 µM | Kd [1, 7]: 0.45 µM | binding weaker than I(145)P3 ([1]; relative to I(145)P3 binding to PLCδ-PH): two-fold
Compound: O=P(O)(O)O[C@@H]1[C@@H](O)[C@@H](O)[C@@H](OP(=O)(O)OC[C@H](O)CO)[C@H](O)[C@H]1OP(=O)(O)O [GPIP2, 1-(a-glycerophosphoryl)-D-inositol-4,5-bisphosphate]
ΔH ([5]; individual titrations, 25° C): -13.5 ± 0.1 kcal/M and -13.2 ± 0.1 kcal/M | ΔS ([5]; individual titrations, 25° C): −15.6 cal · M^−1 · K^−1 and −15.2 cal · M^−1 · K^−1

Kd [1, 7]: > 60 µM
Compound: O=S(=O)(O)OC1C(OS(=O)(=O)O)C(OS(=O)(=O)O)C(OS(=O)(=O)O)C(OS(=O)(=O)O)C1OS(=O)(=O)O (centres unmarked) [I(SO4)6, inositol hexasulfate]

Kd [1, 7]: > 60 µM
Compound: O=P(O)(O)OC1[C@@H](O)[C@H](O)C(O)[C@H](O)[C@H]1O (some centres unmarked) [I-2-P, inositol-2-phosphate]

Kd [1, 8]: 13 µM | Kd [1, 7]: 8.1 µM
Compound: O=P(O)(O)O[C@@H]1[C@@H](O)[C@H](OP(=O)(O)O)[C@@H](OP(=O)(O)O)[C@H](O)[C@@H]1O [L-I(145)P3]

binding to vesicles [6]: no binding
Compound: phosphatidylinositol [PI]
competition for I(145)P3 binding by lipid vesicles [1]: no detectable competition; also recorded: did not compete

binding to vesicles [6]: no binding
Compound: phosphatidylserine [PS]
competition for I(145)P3 binding by lipid vesicles [1]: no detectable competition; also recorded: did not compete
